pEC50: −log10 of the molar value.
biological target: Nociceptin receptor (Homo sapiens, UniProt P41146); test: In Vitro Binding Assay (IC50) and In Vitro Agonism/Antagonism Measurements (EC50/IC50); conditions: not given
Method: IC50 values are calculated using GraphPad Prism. Agonist/antagonist activities were measured by the [35S]GTPgamma-S binding to proteins using membrane fractions of CHO cells expressing ORL1. Nonspecific binding is determined in the presence of 10 uM unlabeled GTPgammaS. Membrane-bound radioactivity is measured using a TopCount-HTS (PerkinElmer). Specific binding of [35S]GTPgammaS is determined as a difference between the control (in the presence of appropriate concentration of nociceptin), and the baseline (in the presence of DMSO instead of compound). EC50/IC50 values are calculated from % of specific binding in the presence of various concentration of the compound using GraphPad Prism 3.03.

Sequence of Nociceptin receptor (P41146 whole entry): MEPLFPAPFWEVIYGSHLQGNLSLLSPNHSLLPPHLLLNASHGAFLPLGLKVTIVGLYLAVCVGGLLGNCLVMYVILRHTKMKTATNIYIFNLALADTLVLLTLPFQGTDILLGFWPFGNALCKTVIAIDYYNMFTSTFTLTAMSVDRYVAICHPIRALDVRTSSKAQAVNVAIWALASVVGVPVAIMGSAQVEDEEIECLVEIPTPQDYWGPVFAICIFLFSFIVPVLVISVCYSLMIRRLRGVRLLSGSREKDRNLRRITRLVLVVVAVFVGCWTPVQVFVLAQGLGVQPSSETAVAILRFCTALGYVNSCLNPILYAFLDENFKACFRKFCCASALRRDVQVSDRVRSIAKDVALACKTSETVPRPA

| SMILES | pEC50 |
| --- | --- |
| Cc1ccc(-c2c(C)c(CN[C@H]3CC[C@@H](F)C3)nn2-c2ncccc2Cl)cn1 [arylpyrazole, 28] | 9.00 |
| Cc1ccc(-c2c(C)c(CNC3CCCC3F)nn2-c2ncccc2Cl)cn1 (stereo not drawn) [arylpyrazole, 27] | 8.15 |
| Cc1ccc(-c2c(C)c(CNC3CCC(F)(F)C3)nn2-c2ncccc2Cl)cn1 (stereo not drawn) [arylpyrazole, 29] | 8.35 |
| Cc1ncc(-c2c(C)c(CNC3CCCC3)nn2-c2ncccc2Cl)cc1F [arylpyrazole, 30] | 8.92 |
| Cc1ncc(-c2c(C)c(CN[C@H]3CC[C@@H](F)C3)nn2-c2ncccc2Cl)cc1F [arylpyrazole, 31] | 9.51 |

same assay, conditions: pH 7.4; 37 °C

| SMILES | pEC50 |
| --- | --- |
| Cc1ccc(-c2c(C)c(CNC3CCCC3)nn2-c2ncccc2Cl)cn1 [arylpyrazole, 19] | 8.33 |
| Cc1c(CNC(C)C)nn(-c2ccc(Cl)cc2Cl)c1-c1ccc(Cl)cc1 [arylpyrazole, 1] | 6.32 |
| Cc1c(CNC2CCCC2)nn(-c2ncccc2Cl)c1-c1ccc(Cl)nc1 [arylpyrazole, 18] | 7.92 |
